Experimental data: publication PMC6150336, “Hepatotoxicity Induced by Sophora flavescens and Hepatic Accumulation of Kurarinone, a Major Hepatotoxic Constituent of Sophora flavescens in Rats” (Molecules : A Journal of Synthetic Chemistry and Natural …, 2017)
Where two headings read alike, the source gives them in different places.

How the values were obtained:
HL-7702 cells = experiment: Effect of kurarinone on triglyceride levels in HL-7702 cells; assay type: cell-based, human; details: HL 7702 cells exposed for 24 h
Procedure: HL-7702 cells were cultured in RPMI-1640 medium (Gibco, Grand Island, NY, USA) containing 10% fetal bovine serum (FBS) (Gibco, USA) in a humidified atmosphere of 5% CO2 at 37 °C. The cells were seeded in 24-well plates, cultured for 24 h, and incubated with kurarinone (1, 8, 16, 24, 32, 44, and 60 μM) dissolved in RPMI-1640 medium without FBS for 24 h. Triglyceride levels were determined using a triglyceride assay kit (Nanjing Jiancheng Bioengineering Institute) according to the manufacturer’s instructions.

[1] = ESF tissue distribution study in rats; assay type: in vivo, rat; details: for AUC(0-t): male, rat
Procedure: Male rats were divided into five groups corresponding to five experimental time points (n = 3 in each group). Rats under urethane anesthesia were sacrificed by bleeding from the abdominal aorta and hepatic portal vein at 15 min, 30 min, 1 h, 2 h, and 4 h time points (3 rats/time point) after a p.o. dose of ESF (2.5 g/kg). The liver, kidneys, heart, skeletal muscles, small intestine, and bile were harvested and homogenized in threefold volume of ice-cold saline. Kurarinone levels in vivo in the plasma and liver were examined at the time points when blood biochemistry parameters were measured. Kurarinone and kurarinone glucuronides levels were detected by LC-MS/MS [24, 25].

[2] = method and reference not given; cited from earlier work
[3] = AUC0–4h after oral administration of ESF (2.5 g/kg) in rats

For `C=C(C)[C@H](CC=C(C)C)Cc1c(O)cc(OC)c2c1O[C@H](c1ccc(O)cc1O)CC2=O` [Kurarinone, kurarinone], the Triglyceride accumulation (HL-7702 cells; 1-60 μM) was “accumulated dose-dependently”, the EC50 (HL-7702 cells; Homo sapiens, L02, read-out: EC50, increase of triglyceride) was 31.2 ± 2.47 µM and the “Exposure of liver compared with plasma” value ([1]; ESF (2.5 g/kg) orally in rats) was “much higher”. For the same molecule, the “Form of kurarinone in visceral organs” value ([1]; ESF-treated rats) was “predominant”, the AUC(0-t) ([1]; bile, AUC0–4h after oral administration of ESF (2.5 g/kg) in rats, read-out: AUC0–t Biliary Secretion) was 0.8 µM·h and the AUC(0-t) ([1]; heart, AUC0–4h after oral administration of ESF (2.5 g/kg) in rats, read-out: AUC0–t Heart) was 4.7 µM·h. For the same molecule, the AUC(0-t) ([1]; hepatic portal vein plasma, AUC0–4h after oral administration of ESF (2.5 g/kg) in rats, read-out: AUC0–t Protal Plasma) was 4.4 µM·h, the AUC(0-t) ([1]; kidney, AUC0–4h after oral administration of ESF (2.5 g/kg) in rats, read-out: AUC0–t Kidney) was 5.4 µM·h and the AUC(0-t) ([1]; liver, AUC0–4h after oral administration of ESF (2.5 g/kg) in rats, read-out: AUC0–t Liver) was 45.5 µM·h. It also gave an AUC(0-t) ([1]; skeletal muscle, AUC0–4h after oral administration of ESF (2.5 g/kg) in rats, read-out: AUC0–t Skeletal Muscle) of 6.9 µM·h, an AUC(0-t) ([1]; small intestine, AUC0–4h after oral administration of ESF (2.5 g/kg) in rats, read-out: AUC0–t Intestine) of 21.4 µM·h and an AUC(0-t) ([1]; systemic (body) plasma, AUC0–4h after oral administration of ESF (2.5 g/kg) in rats, read-out: AUC0–t Body Plasma) of 2.4 µM·h. The log p [2] was 5.6.
With kurarinone glucuronide the “AUC0–t Biliary Secretion” value [1, 3] was 93.3 µM·h, the “AUC0–t Body Plasma” value [1, 3] was 15.3 µM·h and the “AUC0–t Heart” value [1, 3] was 0.1 µM·h. The “AUC0–t Intestine” value [1, 3] was 2.2 µM·h, the “AUC0–t Kidney” value [1, 3] was 0.7 µM·h and the “AUC0–t Liver” value [1, 3] was 1.4 µM·h. The “AUC0–t Protal Plasma” value [1, 3] was 25.0 µM·h, the “AUC0–t Skeletal Muscle” value [1, 3] was 0.4 µM·h and the “Form of kurarinone in plasma and bile” value ([1]; ESF-treated rats) was “dominant form”.
